From ChEMBL document CHEMBL1130535, “Synthesis of triphosphonate analogues of farnesyl pyrophosphate. Inhibitors of squalene synthase and protein:farnesyl transferase” (Bioorg Med Chem Lett, 1997) come the findings set out here.

Each structure is given as a SMILES string.

For one test, the target named is T1, Squalene synthase (Homo sapiens, UniProt P37268).
T1 sequence (P37268 whole entry): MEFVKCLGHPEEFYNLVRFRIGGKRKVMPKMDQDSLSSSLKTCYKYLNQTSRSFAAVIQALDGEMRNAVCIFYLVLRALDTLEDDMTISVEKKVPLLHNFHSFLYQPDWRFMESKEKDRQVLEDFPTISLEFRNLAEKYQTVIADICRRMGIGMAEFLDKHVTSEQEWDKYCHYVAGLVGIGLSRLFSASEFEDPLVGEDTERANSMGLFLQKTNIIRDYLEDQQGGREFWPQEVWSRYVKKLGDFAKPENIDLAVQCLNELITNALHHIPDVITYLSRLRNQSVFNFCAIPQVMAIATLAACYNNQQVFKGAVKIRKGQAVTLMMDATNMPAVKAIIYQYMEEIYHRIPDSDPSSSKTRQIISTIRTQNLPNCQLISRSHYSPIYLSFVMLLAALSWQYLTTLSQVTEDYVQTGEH
Put plainly: Inhibition of Squalene Synthase.

Test [1] has as its target Protein farnesyltransferase (Homo sapiens, UniProt P49354+P49356). Put plainly: Inhibition of Farnesyl Transferase. The class given is protein-complex assay.

One may read the IC50 as the concentration at which inhibition is half-maximal. Low readings indicate inhibition by little substance, high ones a need for much substance. For the molecule `CC(C)=CCC/C(C)=C/CC/C(C)=C/CC(P(=O)(O)O)P(=O)(O)CP(=O)(O)O` (stereo not given), the IC50 on Squalene synthase came to 1.1 µM; in test [1], 1.81 µM.
In the same order, the values of `CC(C)=CCC/C(C)=C/CC/C(C)=C/CC1(C/C=C(\C)CC/C=C(\C)CCC=C(C)C)P(=O)(O)CP(=O)(O)OP1(=O)O` (stereo not given) are greater than 50 µM and 56.2 µM.
With `CC(C)=CCC/C(C)=C/CC/C(C)=C/CC(P(=O)(O)O)P(=O)(O)O`, the IC50 came to 0.018 µM at Squalene synthase and 13.5 µM in test [1].
In the same order, the values of `CC(C)=CCC/C(C)=C/CC/C(C)=C/CC1P(=O)(O)CP(=O)(O)OP1(=O)O` (stereo not given) are 46.4 µM and 34.2 µM.
As to `CC(C)=CCC/C(C)=C/CC/C(C)=C/CC(C/C=C(\C)CC/C=C(\C)CCC=C(C)C)(P(=O)(O)O)P(=O)(O)CP(=O)(O)O` (stereo not given), the IC50 against Squalene synthase turned out to be 23.3 µM; in test [1] it was 3.99 µM.
